Assay results published in patent US10336775B2 (Asceneuron SA, priority 2014, dated 2019).
Like-named read-outs stand apart in the source and are kept apart here.

Biological target: His-Tagged hOGA (human O-GlcNAcase) (Homo sapiens (Human), UniProt O60502)
Assay: Human O-GlcNAcase enzyme inhibition assay (Example B01)
Type: biochemical
Details: for OGA inhibitor activity (in words): measured according to Example B01
[1] = OGA enzyme inhibition assay, activity range classes defined in μM, read-out: OGA IC50
[2] = OGA IC50 (M), OGA enzyme inhibition assay, activity range classes defined in μM

Chain of His-Tagged hOGA (human O-GlcNAcase) (O60502 whole entry): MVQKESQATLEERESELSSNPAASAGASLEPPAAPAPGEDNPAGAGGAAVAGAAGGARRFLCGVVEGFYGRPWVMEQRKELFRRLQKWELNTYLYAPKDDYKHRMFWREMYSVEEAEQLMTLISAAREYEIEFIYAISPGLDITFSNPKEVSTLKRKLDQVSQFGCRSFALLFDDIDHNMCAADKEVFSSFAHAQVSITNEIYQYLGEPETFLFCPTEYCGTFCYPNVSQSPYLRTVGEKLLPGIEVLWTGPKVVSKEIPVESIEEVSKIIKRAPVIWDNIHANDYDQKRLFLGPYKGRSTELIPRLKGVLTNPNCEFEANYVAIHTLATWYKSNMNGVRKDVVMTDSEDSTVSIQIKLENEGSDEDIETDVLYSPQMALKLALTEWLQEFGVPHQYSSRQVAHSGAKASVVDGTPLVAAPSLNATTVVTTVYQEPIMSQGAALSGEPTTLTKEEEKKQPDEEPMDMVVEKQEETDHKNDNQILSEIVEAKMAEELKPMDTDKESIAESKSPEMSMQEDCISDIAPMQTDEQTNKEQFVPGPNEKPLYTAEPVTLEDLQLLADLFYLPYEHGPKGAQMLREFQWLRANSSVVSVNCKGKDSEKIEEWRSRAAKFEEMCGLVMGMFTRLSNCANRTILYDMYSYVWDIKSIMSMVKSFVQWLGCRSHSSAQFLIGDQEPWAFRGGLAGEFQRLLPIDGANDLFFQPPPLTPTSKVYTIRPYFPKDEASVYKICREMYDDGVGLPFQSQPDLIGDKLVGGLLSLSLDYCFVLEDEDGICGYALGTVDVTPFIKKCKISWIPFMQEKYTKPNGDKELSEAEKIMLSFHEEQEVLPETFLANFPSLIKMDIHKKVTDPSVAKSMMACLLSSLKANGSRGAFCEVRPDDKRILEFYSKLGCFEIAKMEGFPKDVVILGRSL

Row | IC50 [1] | SMILES | further results
1 | < 0.05 µM | CC(=O)Nc1cnc(N2CCN(C(C)c3ccc4scnc4c3)CC2)nc1 (racemic) [Example 116, N-(2-(4-(1-(benzo[d]thiazol-5-yl)ethyl)piperazin-1-yl)pyrimidin-5-yl)acetamide] | OGA inhibitor activity (in words): very potent OGA inhibitors
2 | 0.2 to 1 µM | CC(=O)Nc1nnc(N2CCN(C(C)c3ccc4c(c3)OC(F)(F)O4)CC2)s1 (racemic) [Example 117] | –
3 | 0.2 to 1 µM | CC(=O)Nc1cnc(N2CCN(C(C)c3ccc4c(c3)OC(F)(F)O4)CC2)nc1 (racemic) [Example 118] | –
4 | 0.05 to 0.2 µM | CC(c1ccc2c(c1)OCO2)N1CCN(c2ncc3ccccc3n2)CC1 (racemic) [Example 119, 2-(4-(1-(benzo[d][1,3]dioxol-5-yl)ethyl)piperazin-1-yl)quinazoline] | –
5 | – | CC(=O)Nc1cnc(N2CCN(C(C)c3ccc4cccnc4c3)CC2)nc1 (racemic) [Example 120, N-(2-(4-(1-(quinolin-7-yl)ethyl)piperazin-1-yl)pyrimidin-5-yl)acetamide] | IC50 [2]: 0.05 to 0.2 µM
6 | 1 to 10 µM | CC(=O)Nc1cnc(N2CCN(C(C)c3ccc4nonc4c3)CC2)nc1 (racemic) [Example 121, N-(2-(4-(1-(benzo[c][1,2,5]oxadiazol-5-yl)ethyl)piperazin-1-yl)pyrimidin-5-yl)acetamide] | –
7 | < 0.05 µM | CC(=O)Nc1cnc(N2CCN(C(C)c3ccc4nsnc4c3)CC2)nc1 (racemic) [Example 122, N-(2-(4-(1-(benzo[c][1,2,5]thiadiazol-5-yl)ethyl)piperazin-1-yl)pyrimidin-5-yl)acetamide] | –
8 | < 0.05 µM | CC(=O)Nc1nnc(N2CCN(C(C)c3ccc4nsnc4c3)CC2)s1 (racemic) [Example 123, N-(5-(4-(1-(benzo[c][1,2,5]thiadiazol-5-yl)ethyl)piperazin-1-yl)-1,3,4-thiadiazol-2-yl)acetamide] | –
9 | 1 to 10 µM | CC(=O)Nc1nnc(N2CCN(C(C)c3ccc4cc(Cl)cnc4c3)CC2)s1 (racemic) [Example 124] | –
10 | 1 to 10 µM | CC(=O)Nc1cnc(N2CCN(C(C)c3ccc4cc(Cl)cnc4c3)CC2)nc1 (racemic) [Example 125, N-(2-(4-(1-(3-chloroquinolin-7-yl)ethyl)piperazin-1-yl)pyrimidin-5-yl)acetamide] | –
11 | 0.2 to 1 µM | CC(=O)Nc1cnc(N2CCN(C(C)c3ccc4c(c3)OCCCO4)CC2)nc1 (racemic) [Example 126, N-(2-(4-(1-(3,4-dihydro-2H-benzo[b][1,4]dioxepin-7-yl)ethyl)piperazin-1-yl)pyrimidin-5-yl)acetamide] | –
12 | 1 to 10 µM | CC(=O)Nc1cnc(N2CCN(C(C)c3cccc4cccnc34)CC2)nc1 (racemic) [Example 127, N-(2-(4-(1-(quinolin-8-yl)ethyl)piperazin-1-yl)pyrimidin-5-yl)acetamide] | –
13 | < 0.05 µM | CC(=O)Nc1nnc(N2CCN(C(C)c3ccc4c(c3)OCC4)CC2)s1 (racemic) [Example 128, N-(5-(4-(1-(2,3-dihydrobenzofuran-6-yl)ethyl)piperazin-1-yl)-1,3,4-thiadiazol-2-yl)acetamide] | OGA inhibitor activity (in words): very potent OGA inhibitors
14 | < 0.05 µM | CC(=O)Nc1cnc(N2CCN(C(C)c3ccc4c(c3)OCC4)CC2)nc1 (racemic) [Example 129, N-(2-(4-(1-(2,3-dihydrobenzofuran-6-yl)ethyl)piperazin-1-yl)pyrimidin-5-yl)acetamide] | OGA inhibitor activity (in words): very potent OGA inhibitors
15 | 0.2 to 1 µM | CC(c1ccc2c(c1)OCO2)N1CCN(c2nc3ccccc3s2)CC1 (racemic) [Example 130, 2-(4-(1-(benzo[d][1,3]dioxol-5-yl)ethyl)piperazin-1-yl)benzo[d]thiazole] | –
16 | 1 to 10 µM | CC(c1ccc2nccnc2c1)N1CCN(c2nc3ccccc3s2)CC1 (racemic) [Example 135, 2-(4-(1-(quinoxalin-6-yl)ethyl)piperazin-1-yl)benzo[d]thiazole] | –
17 | – | CC(c1ccc2nccnc2c1)N1CCN(c2nc3cnccc3s2)CC1 (racemic) [Example 140, 2-(4-(1-(quinoxalin-6-yl)ethyl)piperazin-1-yl)thiazolo[4,5-c]pyridine] | IC50 [2]: 0.2 to 1 µM
18 | – | Cc1csc(N2CCN(C(C)c3ccc4c(c3)OCO4)CC2)n1 (racemic) [Example 144, 1-[1-(1,3-benzodioxol-5-yl)ethyl]-4-(4-methyl-2-thiazolyl)-piperazine] | IC50 [2]: 0.2 to 1 µM
19 | 0.05 to 0.2 µM | CC(c1ccc2c(c1)OCO2)N1CCN(c2nc3c(s2)C(=O)NCC3)CC1 (racemic) [Example 148, 2-(4-(1-(benzo[d][1,3]dioxol-5-yl)ethyl)piperazin-1-yl)-6,7-dihydrothiazolo[5,4-c]pyridin-4(5H)-one] | –
20 | 0.2 to 1 µM | CC(c1ccc2nccnc2c1)N1CCN(c2ccc(C(F)(F)F)cn2)CC1 (racemic) [Example 165, 6-(1-(4-(5-(trifluoromethyl)pyridin-2-yl)piperazin-1-yl)ethyl)quinoxaline] | –
21 | < 0.05 µM | CC(=O)Nc1cnc(N2CCN(C(C)c3ccc4sc(C)nc4c3)CC2)nc1 (racemic) [Example 169, N-(2-(4-(1-(2-methylbenzo[d]thiazol-5-yl)ethyl)piperazin-1-yl)pyrimidin-5-yl)acetamide] | –

Row | IC50 [1] | SMILES | further results
22 | < 0.05 µM | CC(=O)Nc1nnc(N2CCN(C(C)c3ccc4sc(C)nc4c3)CC2)s1 (racemic) [Example 170, N-(5-(4-(1-(2-methylbenzo[d]thiazol-5-yl)ethyl)piperazin-1-yl)-1,3,4-thiadiazol-2-yl)acetamide] | –
23 | 0.05 to 0.2 µM | CC(c1ccc2nccnc2c1)N1CCN(c2ncc(F)cn2)CC1 (racemic) [Example 172, 6-(1-(4-(5-fluoropyrimidin-2-yl)piperazin-1-yl)ethyl)quinoxaline] | –
24 | 1 to 10 µM | CC(=O)Nc1cnc(N2CCN(C(C)c3ccc4ncsc4c3)CC2)nc1 (racemic) [Example 174, N-(2-(4-(1-(benzo[d]thiazol-6-yl)ethyl)piperazin-1-yl)pyrimidin-5-yl)acetamide] | –
25 | 0.2 to 1 µM | CC(c1ccc2nccnc2c1)N1CCN(c2nc3c(s2)C(=O)NCC3)CC1 (racemic) [Example 178, 2-(4-(1-(quinoxalin-6-yl)ethyl)piperazin-1-yl)-6,7-dihydrothiazolo[5,4-c]pyridin-4(5H)-one] | –
26 | 1 to 10 µM | CC(=O)Nc1nnc(N2CCN(C(C)c3ccc4ncsc4c3)CC2)s1 (racemic) [Example 179, N-(5-(4-(1-(benzo[d]thiazol-6-yl)ethyl)piperazin-1-yl)-1,3,4-thiadiazol-2-yl)acetamide] | –
27 | 0.05 to 0.2 µM | COc1cnc(N2CCN(C(C)c3ccc4nccnc4c3)CC2)nc1 (racemic) [Example 196] | –
28 | 0.05 to 0.2 µM | COc1nc(N2CCN(C(C)c3ccc4c(c3)OCCO4)CC2)ccc1Br (racemic) [Example 199] | –
29 | 0.05 to 0.2 µM | COc1cccc(N2CCN(C(C)c3ccc4c(c3)OCCO4)CC2)n1 (racemic) [Example 200] | –
30 | 1 to 10 µM | Cc1cnc2cc(C(C)N3CCN(c4ncccn4)CC3)ccc2c1 (racemic) [Example 201, 3-Methyl-7-(1-(4-(pyrimidin-2-yl)piperazin-1-yl)ethyl)quinoline] | –
31 | – | CC(c1ccc2c(c1)OCCO2)N1CCN(c2ncccn2)CC1 (single isomer, unassigned) [Example 34] | OGA inhibitor activity (in words): very potent OGA inhibitors
32 | – | CNC(=O)c1csc(N2CCN(C(C)c3ccc4c(c3)OCO4)CC2)n1 (single isomer, unassigned) [Example 56] | OGA inhibitor activity (in words): very potent OGA inhibitors
33 | – | CC(c1ccc2c(c1)OCO2)N1CCN(c2ncc(C(=O)N(C)C)s2)CC1 (single isomer, unassigned) [Example 61, (R)-2-(4-(1-(benzo[d][1,3]dioxol-5-yl)ethyl)piperazin-1-yl)-N,N-dimethylthiazole-5-carboxamide or (S)-2-(4-(1-(benzo[d][1,3]dioxol-5-yl)ethyl)piperazin-1-yl)-N,N-dimethylthiazole-5-carboxamide] | IC50 [2]: 0.05 to 0.2 µM
34 | – | CC(c1ccc2c(c1)OCCO2)N1CCN(c2ncc(C(=O)N3CCN(C)CC3)s2)CC1 (single isomer, unassigned) [Example 75] | OGA inhibitor activity (in words): very potent OGA inhibitors
35 | – | CC(=O)Nc1cnc(N2CCN(C(C)c3ccc4c(c3)OCO4)CC2)nc1 (single isomer, unassigned) [Example 78] | IC50 [2]: < 0.05 µM
36 | – | CC(c1ccc2cccnc2c1)N1CCN(c2ncccn2)CC1 (single isomer, unassigned) [Example 95, (S)-7-(1-(4-(pyrimidin-2-yl)piperazin-1-yl)ethyl)quinolone or (R)-7-(1-(4-(pyrimidin-2-yl)piperazin-1-yl)ethyl)quinoline] | IC50 [2]: 0.05 to 0.2 µM
37 | < 0.05 µM | CC(=O)Nc1nnc(N2CCN(C(C)c3ccc4scnc4c3)CC2)s1 (single isomer, unassigned) [Example 133, (S)-N-(5-(4-(1-(benzo[d]thiazol-5-yl)ethyl)piperazin-1-yl)-1,3,4-thiadiazol-2-yl)acetamide or ((R)-N-(5-(4-(1-(benzo[d]thiazol-5-yl)ethyl)piperazin-1-yl)-1,3,4-thiadiazol-2-yl)acetamide] | –
38 | < 0.05 µM | CC(O)c1cnc(N2CCN([C@@H](C)c3ccc4c(c3)OCO4)CC2)nc1 (single isomer, unassigned) [Example 197] | –
39 | – | CC(c1ccc2c(c1)OCO2)N1CCN(c2ccc([N+](=O)[O-])cn2)CC1 (centres unmarked) [Example 55, 1-(1-(benzo[d][1,3]dioxol-5-yl)ethyl)-4-(5-nitropyridin-2-yl)piperazine] | IC50: 0.05 to 0.2 µM
40 | < 0.05 µM | C[C@@H](c1ccc2c(c1)OCO2)N1CCN(c2nnc(N)s2)CC1 [Example 132, (S)-5-(4-(1-(benzo[d][1,3]dioxol-5-yl)ethyl)piperazin-1-yl)-1,3,4-thiadiazol-2-amine] | OGA inhibitor activity (in words): very potent OGA inhibitors
41 | < 0.05 µM | CNC(=O)c1cnc(N2CCN([C@@H](C)c3ccc4c(c3)OCO4)CC2)nc1 [Example 134, (S) 2-(4-(1-(benzo[d][1,3]dioxol-5-yl)ethyl)piperazin-1-yl)-N-methylpyrimidine-5-carboxamide] | OGA inhibitor activity (in words): very potent OGA inhibitors
42 | 0.2 to 1 µM | C[C@@H](c1ccc2c(c1)OCO2)N1CCN(c2nc3ccccc3s2)CC1 [Example 136, (S)-2-(4-(1-(benzo[d][1,3]dioxol-5-yl)ethyl)piperazin-1-yl)benzo[d]thiazole] | –
